According to patent publication US6410593B1, “Antidandruff compositions” (priority 1998, dated 2002):
Like-named read-outs stand apart in the source and are kept apart here.

How the values were obtained:
[1] = tested on: dandruff; experiment: antidandruff efficacy test over 15 days on a Test Panel of 20 individuals; format: in vivo; conditions: for Area occupied by dandruff, percentage of variations on D15 relative to D1 / Dandruff removal index, percentage of variations on D15 relative to D1: products at their M.I.C. (2% and 0.2%)
Excerpt: (§1) Undecylenamidopropylbetaine (Amphoram®U from CECA S.A.) was compared with piroctone olamine (CFTA) or 1-hydroxy-4-methyl-6-(2,4,4-trimethylpentyl)-2(1H)pyridone; ethanol (1:1) salt (RN=68890-66-4), taken in its commercial form as Octopyrox® (Hoechst), at the minimum inhibitory doses (M.I.C.) for Pityrosporum ovalae, i.e., respectively, 2% and 0.2% beforehand.

[2] = tested on: Pityrosporum ovalae; experiment: minimum inhibitory doses (M.I.C.) for Pityrosporum ovalae; format: cell-based
Excerpt: as §1

[3] = sebumetry index measured with the Courage-Khazka sebumeter, Test Panel of 20 individuals; conditions: 15 days
[4] = background statement; cited from earlier work
[5] = in vivo

| Molecule | state of dandruff (decrease in the area occupied and increase in the dandruff removal index) [1] | Area occupied by dandruff, percentage of variations on D15 relative to D1 [1] | Dandruff removal index, percentage of variations on D15 relative to D1 [1] | minimum inhibitory doses (M.I.C.) for Pityrosporum ovalae [2] | Sebumetry index, percentage of variation on D15 relative to D1 [3] | solubility in water [4] | Sebumetry index, percentage of variation on D15 relative to D1 [5] |
| --- | --- | --- | --- | --- | --- | --- | --- |
| CCO.Cc1cc(CC(C)CC(C)(C)C)n(O)c(=O)c1 (stereo not drawn) [Octopyrox, 1-hydroxy-4-methyl-6-(2,4,4-trimethylpentyl)-2(1H)pyridone; ethanol (1:1) salt] | remained stable | −7% | −5% | 0.2% | −4% |  |  |
| CC(C)(C)C(=O)C(Oc1ccc(Cl)cc1)n1ccnc1 (stereo not drawn) [climbazole] |  |  |  |  |  | water-insoluble |  |
| N-(carboxymethyl)-N,N-dimethyl-3-[(1-oxoundecenyl)amino]-1-propanaminium hydroxide [Amphoram U] | 30 to 40% | −29% | −36% | 2% |  |  | −7% |
| zinc pyrithione |  |  |  |  |  | water-insoluble |  |
